{
  "source": "paper PMC7669869",
  "about": "“AdipoR1/AdipoR2 dual agonist recovers nonalcoholic steatohepatitis and related fibrosis via endoplasmic reticulum-mitochondria axis” (Nature Communications, 2020)",
  "key": {"AdipoR2": {"target": "T1, AdipoR2 (Homo sapiens, UniProt Q86V24)", "T1 construct": "His; host or cells: HEK293", "T1 sequence (Q86V24 1-386)": "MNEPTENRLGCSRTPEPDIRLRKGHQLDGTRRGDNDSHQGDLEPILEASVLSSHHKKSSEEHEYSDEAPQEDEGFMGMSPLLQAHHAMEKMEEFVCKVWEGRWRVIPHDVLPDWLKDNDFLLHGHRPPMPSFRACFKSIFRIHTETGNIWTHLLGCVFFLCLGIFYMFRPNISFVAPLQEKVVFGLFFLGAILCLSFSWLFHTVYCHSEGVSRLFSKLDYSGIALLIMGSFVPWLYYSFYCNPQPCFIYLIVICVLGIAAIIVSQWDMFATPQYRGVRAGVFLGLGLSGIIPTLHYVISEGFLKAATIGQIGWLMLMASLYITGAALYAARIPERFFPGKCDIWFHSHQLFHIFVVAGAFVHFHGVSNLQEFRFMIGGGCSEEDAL", "experiment": "HTRF binding, AdipoR2 overexpression HEK293 cells", "conditions": "in words", "method": "The expression plasmid of AdipoR1 and AdipoR2 were synthesized and codon optimized by Genescript (Nanjing, China) for their expression in HEK293 cell line. The concentration of FITC-JT003 was 0, 0.1, 0.25, 0.5, 1, 2.5 or 5 μM respectively. Unlabeled peptide JT003 was used as the control to measure the non-specific signal. 10E4 AdipoR1 and AdipoR2 overexpression cells, anti-His-Tb (ThermoFisher Scientific, USA) and JT003-FITC were added into a 384-well plate, with a total volume of 25μl. The mixtures were incubated at room temperature for 30 min in the dark. Fluorescent values at 520 nm and 620 nm were measured for Kd calculation."}, "HFD induced NASH mice": {"system": "HFD induced NASH mice", "experiment": "HFD mice: serum and liver biochemical assays (ALT, FFA, LDL-C, hepatic TG, glycogen)", "format": "in vivo, mouse", "method": "Male C57BL/6J mice of 6–8 weeks of age (20–24 g) were used in these experiments including the NAFLD model and liver fibrosis model. The mice were purchased from Guangdong Medical Laboratory Animal Center and housed in standard isolator cages and maintained on a room temperature of 25 °C and a 12 h:12 h light/dark cycle. At the end of the experiments, mice were fasted 8 h prior to sacrifice. Liver tissue and/or epididymal adipose tissue were flash frozen in liquid nitrogen (with or without RNAlater (TransGen Biotech, China)) and stored at −80 °C for future use, or fixed in 10% paraformaldehyde for histological assays. Blood samples were obtained from the posterior venous plexus of the eyes of anesthetized mice, Blood was separated by centrifugation at 1000g for 15 min Serum was then stored at −80 °C. The ethical approval has been obtained from Animal Care and Use Committee of the Sun Yat-sen University. All animals were maintained in pathogen-free conditions and cared for in accordance with policies and certification of the Association for Assessment and Accreditation of Laboratory Animal Care International (AAALAC International).\nThe NASH model was conducted with feeding a HFD for 16 weeks combine with a MCD diet (Methionine/Choline Deficient Diet, Medicience, China) in the last 4 weeks. […]\nThe levels of ALT, AST, TC and TG in serum were determined using certain commercial assay kits (Nanjing Jiancheng Bioengineering Institute, China). Fasting adiponectin and insulin were quantified in plasma samples using corresponding commercially available Elisa kits (Cloud-Clone Crop, USA).\nThe levels of TG and HYP in liver tissue were detected with certain commercial assay kit (Nanjing Jiancheng Bioengineering Institute, China). […] The cryostat-cut slices were stained with freshly prepared Oil Red O working solution for 7 min Two independent experimenters who were blinded to the treatment evaluated the staining slides and analyzed the score for steatosis, glucogen accumulation and collagen proliferation area."}, "[1]": {"system": "AdipoR1 and AdipoR2 in LX2 cells", "experiment": "RNA interference (AdipoR1/AdipoR2 siRNA) in LX2: PPARα, PPARγ mRNA and protein", "format": "cell-based, human", "conditions": "JT003 48 h, in words", "method": "AdipoR1 and AdipoR2 siRNA as well as mock siRNA were chemically synthesized (GenePharma, China) and transfected into 60–70% confluent HepG2 and LX2 cells using Lipofectamine 3000 (ThermoFisher Scientific, USA). Dilution of siRNA and Lipofectamine 3000 reagents as well as the transfection of cells were performed following the manufacturer’s protocol. For HepG2 cell model, 5E5 cells were plated in 6-well plates and transfected with 5 μL of 20 μM stock siRNA. At 48 h following transfection, the cells were processed for 0.25 mM PA and/or 200 μM JT003 treated for another 24 h. BSA was used as the negative control. […]\nLiver total RNA was extracted by using Trizol reagent following the manufacture’s instruction (TransGen Biotech, China). The concentration of RNA was measured by Nanodrop 2000 (ThermoFisher Scientific, USA). cDNA was transcribed from 10ug total RNA with First Strand cDNA synthesis Super Mix (TransGen Biotech, China). […] Reference gene β-actin was used for data normalization. mRNA expression was analyzed with specific primers listed in Supplementary Table 2.\nTotal protein was isolated from cells or liver samples using RIPA lysis buffer (50.0 mM Tris-HCl (pH = 8.0), 150.0 mM NaCl, 0.02% NaN3, 0.1% SDS, 1% NP-40, 0.5% deoxysodium cholate, 1 mM EDTA, […]). The protein concentration was quantified with BCA kit (Pierce, ThermoFisher Scientific, USA). […]"}},
  "note": "Non-standard residues stand in square brackets, D forms with d. Residues, ends and D or L forms follow the SMILES beside them. Nva = CCC[C@H](N)C(=O)O",
  "data": [
    {"compound": "CCC[C@H](NC(=O)[C@@H]1CCCN1)C(=O)N[C@@H](CC(C)C)C(=O)N[C@@H](Cc1ccc(O)cc1)C(=O)N[C@@H](Cc1ccc(O)cc1)C(=O)N[C@@H](Cc1ccccc1)C(=O)N[C@@H](C)C(N)=O", "note": "[JT003] (H-P[Nva]LYYFA-NH2)", "values": [
      {"measurement": "Kd value for AdipoR2 compared to JT006 and ADP355", "setting": "AdipoR2", "result": "significantly lower Kd value"},
      {"measurement": "decrease of the circulating lipid in the HFD group", "setting": "HFD induced NASH mice; JT003 500 μg kg−1, in words", "result": "reverted"},
      {"measurement": "Hepatocytes TG and serum LDL-C contents", "setting": "HFD induced NASH mice; JT003 500 μg kg−1 i.p. daily 4 weeks, in words", "result": "obviously reduced"},
      {"measurement": "ALT level", "setting": "HFD induced NASH mice; JT003 500 μg kg−1 i.p. daily 4 weeks, vs HFD, in words", "result": "reduced"},
      {"measurement": "effect of AdipoR1 and AdipoR2 siRNA on PPARα level induced by JT003", "setting": "[1]", "result": "reduced the increase of the PPARα level induced by JT003"}
    ]}
  ]
}
